Columns and labels:
[1] = test system: adults with plaque psoriasis; assay: Long-term extension study (PSOARING 3): % BSA affected; type: in vivo, human
Protocol: The % BSA affected is an estimate of the percentage of total involved skin with psoriasis. For the purpose of clinical estimation, the total palmar surface of the subject's palm and digits was assumed to be approximately equivalent to 1% BSA. The % BSA affected by psoriasis was evaluated (from 0% to 100%). Details on calculation of approximate % BSA involvement in each subject (total and individual) can be found in Appendix 2 of the protocol. Percent BSA is a static assessment made without reference to previous scores.
At Screening, Baseline, and for all efficacy assessments, lesions on the subject's scalp, palms, fingernails, toenails, and soles were not included in the calculation of % BSA affected as these areas were excluded from the efficacy analyses.

[2] = test system: adults with plaque psoriasis; assay: Long-term extension study (PSOARING 3): PASI score, PASI75, PASI90; type: in vivo, human
Source text: The PASI scoring system is a widely used, standard, clinical tool for assessing the severity of psoriasis that takes into account the overall severity of erythema (redness), induration (plaque thickness), scale, and the extent of % BSA affected with psoriasis. The 3 clinical signs are each graded on a 5 point scale (0 to 4) and the % BSA affected is scored on a 7 point scale (0 to 6) for each of the 4 specified body regions (head, upper extremities, trunk, and lower extremities). Individual scores are multiplied by a weighted factor for each body region; the sum of these scores gives the overall PASI score. Higher scores indicate more severe disease. PASI is a static assessment made without reference to previous scores. Details on PASI calculation can be found in Appendix 2 of the protocol.

[3] = Week 16 LOCF, Tapinarof (Pivotal)
[4] = Week 16 LOCF, Vehicle (Pivotal)
[5] = Week 16 OC, Tapinarof (Pivotal)
[6] = Week 40 LOCF, Tapinarof (Pivotal)
[7] = Week 40 LOCF, Vehicle (Pivotal)
[8] = Week 40 OC, Tapinarof (Pivotal)

## CC(C)c1c(O)cc(/C=C/c2ccccc2)cc1O [Tapinarof Cream 1%]
[1]; Baseline, Overall
  % BSA affected, Observed, Mean: 4.65 % BSA
  % BSA affected, Observed, Median: 3.00 % BSA
[1]; Baseline, Tapinarof (Pivotal)
  % BSA affected, Observed, Mean: 3.31 % BSA
  % BSA affected, Observed, Median: 2.00 % BSA
[1]; Week 16 LOCF, Overall
  % BSA affected, CFBL, Mean: −1.85 % BSA
  % BSA affected, CFBL, Median: −0.96 % BSA
  % BSA affected, Observed, Mean: 2.82 % BSA
  % BSA affected, Observed, Median: 1.20 % BSA
  % BSA affected, Percent CFBL, Mean: −20.99%
  % BSA affected, Percent CFBL, Median: −46.13%
[1]; [3]
  % BSA affected, CFBL, Mean: −0.77 % BSA
  % BSA affected, CFBL, Median: −0.20 % BSA
  % BSA affected, Observed, Mean: 2.54 % BSA
  % BSA affected, Observed, Median: 1.00 % BSA
  % BSA affected, Percent CFBL, Mean: −5.67%
  % BSA affected, Percent CFBL, Median: −33.33%
[1]; [4]
  % BSA affected, CFBL, Mean: −3.96 % BSA
  % BSA affected, CFBL, Median: −2.98 % BSA
  % BSA affected, Observed, Mean: 3.36 % BSA
  % BSA affected, Observed, Median: 1.80 % BSA
  % BSA affected, Percent CFBL, Mean: −47.15%
  % BSA affected, Percent CFBL, Median: −63.42%
[1]; Week 16 OC, Overall
  % BSA affected, CFBL, Mean: −2.11 % BSA
  % BSA affected, CFBL, Median: −1.00 % BSA
  % BSA affected, Observed, Mean: 2.28 % BSA
  % BSA affected, Observed, Median: 1.02 % BSA
  % BSA affected, Percent CFBL, Mean: −31.25%
  % BSA affected, Percent CFBL, Median: −50.00%
[1]; [5]
  % BSA affected, CFBL, Mean: −0.97 % BSA
  % BSA affected, CFBL, Median: −0.23 % BSA
  % BSA affected, Observed, Mean: 1.97 % BSA
  % BSA affected, Observed, Median: 1.00 % BSA
  % BSA affected, Percent CFBL, Mean: −18.46%
  % BSA affected, Percent CFBL, Median: −36.96%
[1]; Week 16 OC, Vehicle (Pivotal)
  % BSA affected, CFBL, Mean: −4.40 % BSA
  % BSA affected, CFBL, Median: −3.18 % BSA
  % BSA affected, Observed, Mean: 2.89 % BSA
  % BSA affected, Observed, Median: 1.50 % BSA
  % BSA affected, Percent CFBL, Mean: −53.18%
  % BSA affected, Percent CFBL, Median: −66.67%
[1]; Week 40 LOCF, Overall
  % BSA affected, CFBL, Mean: −2.04 % BSA
  % BSA affected, CFBL, Median: −1.00 % BSA
  % BSA affected, Observed, Mean: 2.63 % BSA
  % BSA affected, Observed, Median: 1.00 % BSA
  % BSA affected, Percent CFBL, Mean: −16.29%
  % BSA affected, Percent CFBL, Median: −55.78%
[1]; [6]
  % BSA affected, CFBL, Mean: −0.88 % BSA
  % BSA affected, CFBL, Median: −0.30 % BSA
  % BSA affected, Observed, Mean: 2.44 % BSA
  % BSA affected, Observed, Median: 1.00 % BSA
  % BSA affected, Percent CFBL, Mean: −0.11%
  % BSA affected, Percent CFBL, Median: −46.61%
[1]; [7]
  % BSA affected, CFBL, Mean: −4.33 % BSA
  % BSA affected, CFBL, Median: −3.30 % BSA
  % BSA affected, Observed, Mean: 2.99 % BSA
  % BSA affected, Observed, Median: 1.00 % BSA
  % BSA affected, Percent CFBL, Mean: −43.91%
  % BSA affected, Percent CFBL, Median: −75.06%
[1]; Week 40 OC, Overall
  % BSA affected, CFBL, Mean: −2.35 % BSA
  % BSA affected, CFBL, Median: −1.50 % BSA
  % BSA affected, Observed, Mean: 1.85 % BSA
  % BSA affected, Observed, Median: 0.72 % BSA
  % BSA affected, Percent CFBL, Mean: −35.43%
  % BSA affected, Percent CFBL, Median: −67.00%
[1]; [8]
  % BSA affected, CFBL, Mean: −0.93 % BSA
  % BSA affected, CFBL, Median: −0.49 % BSA
  % BSA affected, Observed, Mean: 1.75 % BSA
  % BSA affected, Observed, Median: 0.68 % BSA
  % BSA affected, Percent CFBL, Mean: −21.60%
  % BSA affected, Percent CFBL, Median: −57.39%
[1]; Week 40 OC, Vehicle (Pivotal)
  % BSA affected, CFBL, Mean: −5.30 % BSA
  % BSA affected, CFBL, Median: −4.49 % BSA
  % BSA affected, Observed, Mean: 2.07 % BSA
  % BSA affected, Observed, Median: 0.80 % BSA
  % BSA affected, Percent CFBL, Mean: −60.22%
  % BSA affected, Percent CFBL, Median: −86.06%
[2]; Baseline, Overall
  PASI, Observed, Mean: 4.76
  PASI, Observed, Median: 3.40
[2]; Baseline, Tapinarof (Pivotal)
  PASI, Observed, Mean: 3.28
  PASI, Observed, Median: 2.30
[2]; Week 16 LOCF, Overall
  PASI, CFBL, Mean: −1.80
  PASI, CFBL, Median: −0.90
  PASI, Observed, Mean: 2.99
  PASI, Observed, Median: 1.80
  PASI, Percent CFBL, Mean: −20.93%
  PASI, Percent CFBL, Median: −40.91%
[2]; [3]
  PASI, CFBL, Mean: −0.54
  PASI, CFBL, Median: −0.20
  PASI, Observed, Mean: 2.74
  PASI, Observed, Median: 1.80
  PASI, Percent CFBL, Mean: −3.20%
  PASI, Percent CFBL, Median: −25.00%
[2]; [4]
  PASI, CFBL, Mean: −4.24
  PASI, CFBL, Median: −3.80
  PASI, Observed, Mean: 3.47
  PASI, Observed, Median: 2.40
  PASI, Percent CFBL, Mean: −51.02%
  PASI, Percent CFBL, Median: −59.38%
[2]; Week 16 OC, Overall
  PASI, CFBL, Mean: −1.99
  PASI, CFBL, Median: −1.00
  PASI, Observed, Mean: 2.57
  PASI, Observed, Median: 1.80
  PASI, Percent CFBL, Mean: −25.35%
  PASI, Percent CFBL, Median: −44.72%
[2]; [5]
  PASI, CFBL, Mean: −0.67
  PASI, CFBL, Median: −0.40
  PASI, Observed, Mean: 2.38
  PASI, Observed, Median: 1.60
  PASI, Percent CFBL, Mean: −7.79%
  PASI, Percent CFBL, Median: −30.00%
[2]; Week 16 OC, Vehicle (Pivotal)
  PASI, CFBL, Mean: −4.59
  PASI, CFBL, Median: −3.80
  PASI, Observed, Mean: 2.95
  PASI, Observed, Median: 2.10
  PASI, Percent CFBL, Mean: −55.09%
  PASI, Percent CFBL, Median: −64.02%
[2]; Week 40 LOCF, Overall
  PASI, CFBL, Median: −0.90
  PASI, Observed, Mean: 2.97
  PASI, Observed, Median: 1.80
  PASI, Percent CFBL, Mean: −10.45%
  PASI, Percent CFBL, Median: −44.44%
[2]; [6]
  PASI, CFBL, Mean: −0.48
  PASI, CFBL, Median: −0.20
  PASI, Observed, Mean: 2.80
  PASI, Observed, Median: 1.80
  PASI, Percent CFBL, Mean: 11.96%
  PASI, Percent CFBL, Median: −27.27%
[2]; [7]
  PASI, CFBL, Mean: −4.42
  PASI, CFBL, Median: −3.90
  PASI, Observed, Mean: 3.28
  PASI, Observed, Median: 2.00
  PASI, Percent CFBL, Mean: −48.42%
  PASI, Percent CFBL, Median: −68.66%
[2]; Week 40 OC, Overall
  PASI, CFBL, Mean: −2.14
  PASI, CFBL, Median: −1.20
  PASI, Observed, Mean: 2.36
  PASI, Observed, Median: 1.60
  PASI, Percent CFBL, Mean: −16.18%
  PASI, Percent CFBL, Median: −56.70%
[2]; [8]
  PASI, CFBL, Mean: −0.51
  PASI, CFBL, Median: −0.30
  PASI, Observed, Mean: 2.38
  PASI, Observed, Median: 1.60
  PASI, Percent CFBL, Mean: 8.49%
  PASI, Percent CFBL, Median: −35.24%
[2]; Week 40 OC, Vehicle (Pivotal)
  PASI, CFBL, Mean: −5.53
  PASI, CFBL, Median: −4.80
  PASI, Observed, Mean: 2.31
  PASI, Observed, Median: 1.40
  PASI, Percent CFBL, Mean: −60.12%
  PASI, Percent CFBL, Median: −76.39%
